Consider eleven compounds from US12173018B2, “Penicillin-binding protein inhibitors” (priority 2018, dated 2024).

The subject of experiment [1] is engineered strain of Escherichia coli harboring CTX-M15. Put plainly: microbe, parasite or virus in culture. It counts as cell-based. The settings on record: Escherichia coli, read-out: Microbiological Activity (MIC in mg/L), E. coli DH5α/pLBII-CTX-M15, engineered strain producing CTX-M15. On the procedure:
(§1) Briefly, cryo-preserved bacterial cultures of challenge strains are streaked for isolation on appropriate agar medium, in this case Mueller Hinton II agar. Following incubation to allow growth of the colonies, plates are sealed with parafilm and stored refrigerated for up to two weeks. For preparation of assay inoculum and to ensure low variability, at least 5 colonies are picked from the agar plates with an inoculating loop and aseptically transferred to a culture tube containing 3 mL of Mueller-Hinton Broth (supplemented with divalent cations to required levels based on Manufacturers' certification). The broth culture is grown for 3-5 hours at 37° C. with shaking at 200 rpm. Meanwhile, 2-fold serial dilutions of test compounds are conducted in a 96 well plate with a final volume of 75 μL per well at 2-fold the final desired concentration. After the dilution plates are set up the growing cultures are then diluted in a cuvette containing MH II broth and the optical density is measured at 600 nm. The Inoculum is diluted such that 75 μL of this culture in Mueller-Hinton Broth results in a starting bacterial concentration of 5×10^5 CFU/mL when added to the dilution plates. The plates are incubated for 16-20 hours at 37° C. The MIC values are read visually as the lowest concentration well with no bacterial growth.
To determine if test compounds were affected by CTX-M15, the most abundant extended spectrum […] in clinical settings worldwide, the inhibition of the growth of an engineered strain of Escherichia coli harboring CTX-M15 was tested. This strain was constructed by cloning the gene encoding CTX-M15 into the NdeI and BamHI restriction endonuclease sites of plasmid pLBII, placing the gene(s) under the control of the Lac promoter. The constructed expression plasmid for CTX-M15 was used to transform competent E. coli DH5α cells to make the engineered strain, including an empty pLBII vector control strain. The classic cell based broth microdilution MIC assay was employed as described above with the addition of control antibiotics, known to be degraded by β-lactamases (Ceftazidime, piperacillin and piperacillin+tazobactam).

A further experiment deals with K. pneumoniae 848844. Put plainly: microbe, parasite or virus in culture. It counts as cell-based, Klebsiella pneumoniae. The settings on record: Klebsiella pneumoniae; K. pneumoniae 848844 producing SHV-11 and KPC-2; read-out: MIC K. pneumoniae 848844. Here is the method:
(§2) To determine the ability of test compounds to potentiate the inhibition of the growth of bacterial strains, classic cell based broth microdilution minimum inhibitory concentration (MIC) assays were employed. MIC assays are performed according to CLSI methods except where otherwise noted (CLSI, 2011 and CLSI, 2009). The reference type strain E. coli ATCC 25922, the wild-type parent strain E. coli AG100, the hyper-permeable E. coli 901C and E. coli D22 and the E. coli AG100A strain lacking the acrAB efflux pump encoding genes were used to determine the ability of the PBP inhibitors to penetrate the outer membrane of gram-negative bacteria and inhibit bacterial growth. […] The P. aeruginosa PAO1, P. aeruginosa ATCC 27853 and A. baumannii ATCC 19606, along with the hyper-permeable P. aeruginosa ATCC 35151 and an engineered efflux pump-compromised strain of P. aeruginosa (ΔmexAB-oprM) were used to determine the ability of PBP inhibitors to penetrate the outer membrane of P. aeruginosa and A. baumannii and assess antibacterial activity against these important gram-negative organisms.
as §1

The test system of a further experiment is E. coli AG100A. Put plainly: microbe, parasite or virus in culture. It counts as cell-based. The settings on record: Escherichia coli, read-out: MIC E. coli AG100A. Here is the method: as §2, §1
A further experiment deals with E. coli D22. The experiment in a line: microbe, parasite or virus in culture. It counts as cell-based. The settings on record: Escherichia coli; hyper-permeable E. coli D22, broth microdilution; read-out: MIC E. coli D22. Here is the method:
as §2, §1

A further experiment has as its system K. pneumoniae SI-117. Put plainly: microbe, parasite or virus in culture. It counts as cell-based. The settings on record: Klebsiella pneumoniae, SI117, read-out: MIC K. pneumoniae SI-117. On the procedure:
as §2, §1

The next experiment concerns K. pneumoniae UMM. The experiment in a line: microbe, parasite or virus in culture. The settings on record: Klebsiella pneumoniae; K. pneumoniae UMM producing SHV-5 and KPC-2; read-out: MIC K. pneumoniae UMM. It counts as cell-based. On the procedure:
as §2, §1

The next experiment relates to E. coli 901C. Put plainly: microbe, parasite or virus in culture. It counts as cell-based. The settings on record: Escherichia coli; hyper-permeable E. coli 901C, broth microdilution; read-out: MIC E. coli 901C. Here is the method:
as §2, §1

The next experiment relates to E. coli AG100. The experiment in a line: Broth microdilution MIC, E. coli AG100 (wild-type parent). It counts as cell-based. The settings on record: Escherichia coli; wild-type parent E. coli AG100, broth microdilution; read-out: MIC E. coli AG100. Here is the method: To determine the ability of test compounds to potentiate the inhibition of the growth of bacterial strains, classic cell based broth microdilution minimum inhibitory concentration (MIC) assays were employed.
as §1

The test system of another experiment is E. coli ATCC 25922. The experiment in a line: Broth microdilution MIC, E. coli ATCC 25922. It counts as cell-based. The settings on record: Escherichia coli. Here is the method:
as §2, §1

The next experiment has as its target E. coli PBP3 (Escherichia coli (strain K12), UniProt P0AD68). The experiment in a line: E. coli PBP3 Bocillin-FL fluorescence polarization competition binding assay. Put shortly: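 Steps: purified PBP (1.5 μM final) mixed with compound (0–1000 μM) in 50 mM Hepes pH 8.0, 300 mM NaCl, 5% glycerol; Bocillin-FL added to 0.1 μM; FP (ex 490, em 520 nm) followed for 60 min. Concentration reducing Bocillin-FL binding reported as EC50.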

Where [2] appears, read: ATCC25922, E. coli ATCC 25922, broth microdilution, read-out: MIC E. coli 25922.
Setting [3] is: fluorescence polarization competition binding with Bocillin-FL, read-out: E. coli K12 PBP3 Potency.

Each structure is given as a SMILES string. Values after ≈ are worked out from the molar mass of the structure shown. Where two headings read alike, the source gives them in different places.

E. coli PBP3, sequence (P0AD68 whole entry): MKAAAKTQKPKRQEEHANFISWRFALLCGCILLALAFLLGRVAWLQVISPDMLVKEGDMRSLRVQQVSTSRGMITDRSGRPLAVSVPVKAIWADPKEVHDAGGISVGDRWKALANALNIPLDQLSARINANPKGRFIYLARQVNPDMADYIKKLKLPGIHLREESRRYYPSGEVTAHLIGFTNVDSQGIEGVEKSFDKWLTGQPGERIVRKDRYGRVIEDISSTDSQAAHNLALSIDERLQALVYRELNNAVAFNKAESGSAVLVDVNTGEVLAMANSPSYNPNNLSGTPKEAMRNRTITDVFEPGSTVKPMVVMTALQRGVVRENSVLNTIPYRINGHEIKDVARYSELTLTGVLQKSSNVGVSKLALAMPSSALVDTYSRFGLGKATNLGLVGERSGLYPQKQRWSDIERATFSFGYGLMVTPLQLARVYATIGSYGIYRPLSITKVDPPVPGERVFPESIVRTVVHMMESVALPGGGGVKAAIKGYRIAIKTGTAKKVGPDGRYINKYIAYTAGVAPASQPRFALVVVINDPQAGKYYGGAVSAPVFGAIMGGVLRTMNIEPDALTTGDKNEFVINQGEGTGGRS

In the case of `O=C(O)c1cccc2c1OB(O)[C@@H](NC(=O)C(NC(=O)c1c[nH]c3cccnc3c1=O)c1ccc(O)c(O)c1Cl)C2` (stereo partly drawn) [Example 59, (3R)-3-(2-(2-chloro-3,4-dihydroxyphenyl)-2-(4-oxo-1,4-dihydro-1,5-naphthyridine-3-carboxamido)acetamido)-2-hydroxy-3,4-dihydro-2H-benzo[e][1,2]oxaborinine-8-carboxylic acid], the MIC in experiment [1] is 128 to 256 mg/L (≈ 221 to 442 µM).

In the case of `CCN1CCN(C(=O)NC(C(=O)N[C@H]2Cc3cccc(C(=O)O)c3OB2O)c2ccc(N3CCOCC3)cc2)C(=O)C1=O` (stereo partly drawn) [Example 61, (3R)-3-(2-(4-ethyl-2,3-dioxopiperazine-1-carboxamido)-2-(4-morpholinophenyl)acetamido)-2-hydroxy-3,4-dihydro-2H-benzo[e][1,2]oxaborinine-8-carboxylic acid], in [1], the MIC is 128 to 256 mg/L (≈ 216 to 431 µM).

As to `CCN1CCN(C(=O)N[C@@H](C(=O)N[C@H]2Cc3cccc(C(=O)O)c3OB2O)C2(CO)CC2)C(=O)C1=O` [Example 62, (R)-3-((R)-2-(4-ethyl-2,3-dioxopiperazine-1-carboxamido)-2-(1-(hydroxymethyl)cyclopropyl)acetamido)-2-hydroxy-3,4-dihydro-2H-benzo[e][1,2]oxaborinine-8-carboxylic acid], in experiment [1], the MIC lay within 32 to 64 mg/L (≈ 63.7 to 127 µM).

Regarding `CCN1CCN(C(=O)NC(C(=O)N[C@H]2Cc3cccc(C(=O)O)c3OB2O)C(CO)CNS(N)(=O)=O)C(=O)C1=O` (stereo partly drawn) [Example 79, (3R)-3-(2-(4-ethyl-2,3-dioxopiperazine-1-carboxamido)-4-hydroxy-3-((sulfamoylamino)methyl)butanamido)-2-hydroxy-3,4-dihydro-2H-benzo[e][1,2]oxaborinine-8-carboxylic acid], the MIC in experiment [1] lay within 32 to 64 mg/L (≈ 54.8 to 110 µM).

For the compound `CCN1CCN(C(=O)NC(C(=O)N[C@H]2Cc3cccc(C(=O)O)c3OB2O)C(CCl)CNS(N)(=O)=O)C(=O)C1=O` (stereo partly drawn) [Example 80, (3R)-3-(4-chloro-2-(4-ethyl-2,3-dioxopiperazine-1-carboxamido)-3-((sulfamoylamino)methyl)butanamido)-2-hydroxy-3,4-dihydro-2H-benzo[e][1,2]oxaborinine-8-carboxylic acid], in experiment [1], the MIC fell in the range of 128 to 256 mg/L (≈ 212 to 425 µM).

Regarding `CCN1CCN(C(=O)NC(C(=O)N[C@H]2Cc3cc(F)c(F)c(C(=O)O)c3OB2O)c2ccc(O)c(O)c2Cl)C(=O)C1=O` (stereo partly drawn) [Example 180, (3R)-3-(2-(2-chloro-3,4-dihydroxyphenyl)-2-(4-ethyl-2,3-dioxopiperazine-1-carboxamido)acetamido)-6,7-difluoro-2-hydroxy-3,4-dihydro-2H-benzo[e][1,2]oxaborinine-8-carboxylic acid], the MIC in the experiment with K. pneumoniae 848844 was 2 to 4 µg/mL; with E. coli AG100A it was 0.5 to 1 µg/mL; in the experiment with E. coli D22, 2 to 4 µg/mL; in the experiment on K. pneumoniae SI-117, 2 to 4 µg/mL; in the experiment on K. pneumoniae UMM, 0.5 to 1 µg/mL; in the experiment on E. coli 901C, 0.5 to 1 µg/mL. Moreover, the MIC in the experiment with E. coli AG100 lay in the range of 2 to 4 µg/mL; in the experiment with E. coli ATCC 25922 (setting [2]) it was 8 to 16 µg/mL. In addition, at E. coli PBP3 (setting [3]), the EC50 was < 30 µM.

With `CCOC(=O)c1cccc2c1OB(O)[C@@H](NC(=O)C(NC(=O)N1CCN(CC)C(=O)C1=O)c1ncc(O)cc1F)C2` (stereo partly drawn) [Example 195, Ethyl (3R)-3-(2-(4-ethyl-2,3-dioxopiperazine-1-carboxamido)-2-(3-fluoro-5-hydroxypyridin-2-yl)acetamido)-2-hydroxy-3,4-dihydro-2H-benzo[e][1,2]oxaborinine-8-carboxylate], the MIC with K. pneumoniae 848844 is > 128 µg/mL; in the experiment on E. coli AG100A, > 128 µg/mL; in the experiment with E. coli D22, > 128 µg/mL; with K. pneumoniae SI-117, > 128 µg/mL; with K. pneumoniae UMM it was > 128 µg/mL; in the experiment on E. coli 901C it was 32 to 64 µg/mL. The MIC with E. coli AG100 and in the experiment with E. coli ATCC 25922 (setting [2]) was > 128 µg/mL in each case. The EC50 on E. coli PBP3 (setting [3]) was > 500 µM.

On to `CCN1CCN(C(=O)NC(C(=O)N[C@H]2Cc3cccc(C(=O)O)c3OB2O)c2ccc(OCCCN)cc2F)C(=O)C1=O` (stereo partly drawn) [Example 209, (3R)-3-(2-(4-(3-aminopropoxy)-2-fluorophenyl)-2-(4-ethyl-2,3-dioxopiperazine-1-carboxamido)acetamido)-2-hydroxy-3,4-dihydro-2H-benzo[e][1,2]oxaborinine-8-carboxylic acid], for which the MIC in the experiment with K. pneumoniae 848844 is > 128 µg/mL; in the experiment with E. coli AG100A, 0.5 to 1 µg/mL; in the experiment with E. coli D22, 2 to 4 µg/mL; with K. pneumoniae SI-117, > 128 µg/mL; in the experiment with K. pneumoniae UMM, 32 to 64 µg/mL; in the experiment with E. coli 901C it was < 0.25 µg/mL. Moreover, the MIC with E. coli AG100 is 32 to 64 µg/mL; in the experiment with E. coli ATCC 25922 (setting [2]), 8 to 16 µg/mL. The compound further gave an EC50 on E. coli PBP3 of 30 to 500 µM.

Turning to `O=C(O)c1cccc2c1OB(O)[C@@H](NC(=O)C(NC(=O)c1c[nH]ccc1=O)c1ncc(O)cc1F)C2` (stereo partly drawn) [Example 219, (3R)-3-(2-(3-fluoro-5-hydroxypyridin-2-yl)-2-(4-oxo-1,4-dihydropyridine-3-carboxamido)acetamido)-2-hydroxy-3,4-dihydro-2H-benzo[e][1,2]oxaborinine-8-carboxylic acid], the MIC is > 128 µg/mL with K. pneumoniae 848844; 8 to 16 µg/mL in the experiment on E. coli AG100A; 8 to 16 µg/mL with E. coli D22; 32 to 64 µg/mL in the experiment on K. pneumoniae SI-117; 32 to 64 µg/mL with K. pneumoniae UMM; 2 to 4 µg/mL in the experiment with E. coli 901C. Besides, the MIC in the experiment on E. coli AG100 was > 128 µg/mL; in the experiment on E. coli ATCC 25922 (ATCC25922, read-out: MIC E. coli 25922), > 128 µg/mL. Further, the EC50 at E. coli PBP3 was < 30 µM.

For the compound `NCCN1CCN(C(=O)N[C@H](C(=O)N[C@H]2Cc3cccc(C(=O)O)c3OB2O)c2ccc(O)c(O)c2Cl)C(=O)C1=O` [Example 221, (R)-3-((S)-2-(4-(2-aminoethyl)-2,3-dioxopiperazine-1-carboxamido)-2-(2-chloro-3,4-dihydroxyphenyl)acetamido)-2-hydroxy-3,4-dihydro-2H-benzo[e][1,2]oxaborinine-8-carboxylic acid], the MIC with K. pneumoniae 848844 lay in the range of 32 to 64 µg/mL; with E. coli AG100A, 8 to 16 µg/mL; with E. coli D22 it was 8 to 16 µg/mL; in the experiment with K. pneumoniae SI-117, 32 to 64 µg/mL; in the experiment on K. pneumoniae UMM, 8 to 16 µg/mL; with E. coli 901C, 8 to 16 µg/mL. Also, the MIC in the experiment with E. coli AG100 was 8 to 16 µg/mL; in the experiment with E. coli ATCC 25922 (setting [2]), > 128 µg/mL. Also, at E. coli PBP3, the EC50 is 30 to 500 µM.

Take `NCCN1CCN(C(=O)N[C@H](C(=O)N[C@H]2Cc3cccc(C(=O)O)c3OB2O)c2ncc(O)cc2F)C(=O)C1=O` [Example 226, (R)-3-((S)-2-(4-(2-aminoethyl)-2,3-dioxopiperazine-1-carboxamido)-2-(3-fluoro-5-hydroxypyridin-2-yl)acetamido)-2-hydroxy-3,4-dihydro-2H-benzo[e][1,2]oxaborinine-8-carboxylic acid]: the MIC with K. pneumoniae 848844 is > 128 µg/mL; in the experiment on E. coli AG100A, 8 to 16 µg/mL; in the experiment on E. coli D22 it was 8 to 16 µg/mL; in the experiment with K. pneumoniae SI-117, > 128 µg/mL; with K. pneumoniae UMM, 32 to 64 µg/mL; in the experiment with E. coli 901C, 2 to 4 µg/mL. In addition, the MIC with E. coli AG100 is 32 to 64 µg/mL; in the experiment on E. coli ATCC 25922 (setting [2]), > 128 µg/mL. This compound also had an EC50 at E. coli PBP3 of 30 to 500 µM.
